Measurements: paper PMC4186413, “Identification of metabolic pathways and enzyme systems involved in the in vitro human hepatic metabolism of dronedarone, a potent new oral antiarrhythmic drug” (Pharmacology Research & Perspectives, 2014)

Assays:
Format in all cases: in vitro ADME
CYP3A5 = target: T1, CYP3A5 (Homo sapiens, UniProt P20815); assay: Oxidation by recombinant human CYP3A5
T1 construct: purchased BD Gentest (Woburn, MA); host or cells: baculovirus-infected insect cells
Excerpt: Recombinant human CYPs (Supersomes™; BD Gentes, Woburn, MA: CYP1A1, CYP1A2, CYP2A6, CYP2B6, CYP2C8, CYP2C9, CYP2C18, CYP2C19, CYP2D6, CYP2E1, CYP3A4 and CYP3A5), FMOs (Supersomes™: FMO1, FMO3, FMO5), MAOs (Supersomes™: MAO-A and MAO-B), and UGTs (Supersomes™: UGT1A1, UGT1A3, UGT1A4, UGT1A6, UGT1A7, UGT1A8, UGT1A9, UGT1A10, UGT2B4, UGT2B7, UGT2B15, and UGT2B17) expressed in baculovirus-infected insect cells and control microsomes from insect cells infected with wild-type baculovirus were all obtained from BD Gentest (Woburn, MA). […]
In human liver microsomes and recombinant isoforms, the percentage of metabolism was determined on the basis of unchanged drug disappearance, using the following equation [drawing 1] where UDt = 30 min represents the unchanged drug peak area after a 30-min incubation period and UDt = 0, the unchanged drug peak area at t = 0. […]
(§1) Figure 5 Contribution of individual CYPs, FMOs and MAOs to the oxidation of dronedarone and its metabolites. […] Unchanged drugs were quantified by LC/MS-MS relative to the synthetic references as described in Materials and Methods. Data are expressed as the percentage of oxidation.

[1] = Oxidative metabolism by human hepatic microsomal fractions with or without NADPH; details: 1 mg·mL^−1, 5 μmol/L, 30 min
Description: Human hepatic microsomal fractions were obtained from a large pool of human liver (150 individuals) prepared by BD Gentest-Biosciences (BD UltraPool™ HLM 150 – catalogue reference, 452118 Easy Count Box, Woburn, MA). This pooled human liver microsomal batch was also validated internally by the use of FDA-recommended CYP probes (FDA guidance for Industry, draft guidance February 2012).
(§2) For oxidative pathways, the assay mixture was composed of human liver microsomes (1 mg·m·L^−1) or microsomes of baculovirus-infected cells expressing human enzymes (100 pmol·mL^−1 for CYPs and 1 mg·mL^−1 for FMOs and MAOs), nicotinamide adenine dinucleotide phosphate reduced form (NADPH) (1 mmol/L), 100 mmol/L potassium phosphate (pH 7.4), and 5 μmol/L of the investigated compound dissolved in DMSO in a final volume of 500 μL.
(§3) The final concentration of DMSO in the reaction mixture was less than 1% (v/v). Initial rate conditions with respect to time and protein concentration for both the disappearance of unchanged drug and the formation of respective metabolites were established in preliminary studies. The enzyme reaction was initiated by addition of NADPH (10 mmol/L aqueous solution) to achieve a final concentration of 1 mmol/L for oxidative CYP- and FMO-dependent reactions or by the drug for MAO-dependent reactions, incubated at 37°C and stopped after 0–30 min by addition of one volume of ice-cold acetonitrile.
After removal of the proteins by centrifugation at 10,000 rpm for 10 min, a portion of the supernatant was analyzed by LC-UV-MS.
(§4) In human liver microsomes and recombinant isoforms, the percentage of metabolism was determined on the basis of unchanged drug disappearance, using the following equation [drawing 1] where UDt = 30 min represents the unchanged drug peak area after a 30-min incubation period and UDt = 0, the unchanged drug peak area at t = 0.
Dronedarone and its metabolites were incubated over 30 min with human hepatic microsomal fractions (1 mg·mL^−1) at a final concentration of 5 μmol/L, in the absence or the presence of 1 mmol/L NADPH, the cofactor for CYP- and FMO-dependent reactions.

[2] = system: CYP1A1, -1A2, -2A6, -2B6, -C8, -2C9, -2C18, -2C19, -2D6, -2E1, -3A4, and -3A5; assay: Oxidation by the panel of recombinant human CYP isoforms; details: 100 pmol/mL, 5 μmol/L, 30 min, NADPH; for Oxidation by the other CYP isoforms of the panel: isoforms other than those named for the drug
Excerpt: (§5) Recombinant human CYPs (Supersomes™; BD Gentes, Woburn, MA: CYP1A1, CYP1A2, CYP2A6, CYP2B6, CYP2C8, CYP2C9, CYP2C18, CYP2C19, CYP2D6, CYP2E1, CYP3A4 and CYP3A5), FMOs (Supersomes™: FMO1, FMO3, FMO5), MAOs (Supersomes™: MAO-A and MAO-B), and UGTs (Supersomes™: UGT1A1, UGT1A3, UGT1A4, UGT1A6, UGT1A7, UGT1A8, UGT1A9, UGT1A10, UGT2B4, UGT2B7, UGT2B15, and UGT2B17) expressed in baculovirus-infected insect cells and control microsomes from insect cells infected with wild-type baculovirus were all obtained from BD Gentest (Woburn, MA).
as §2, §3, §4
(§6) To identify the specific isoforms that are capable of oxidizing dronedarone and its metabolites, assays were performed using c-DNA-expressed isoforms belonging to CYP- (CYP1A1, -1A2, -2A6, -2B6, -C8, -2C9, -2C18, -2C19, -2D6, -2E1, -3A4, and -3A5), FMO- (FMO-1, -3, and -5) and MAO- (MAO-A and MAO-B) families.
(§7) Figure 5 Contribution of individual CYPs, FMOs and MAOs to the oxidation of dronedarone and its metabolites. Individual CYPs (100 pmol/mL), FMOs (1 mg/mL) and MAOs (1 mg/mL) were incubated with either dronedarone (A) or its metabolites, N-debutyl-dronedarone (B), propanoic acid-dronedarone (C), and phenol-dronedarone (D), at a concentration of 5 μmol/L, for 30 min at 37°C in the presence of NADPH, except for MAOs where incubations were performed in the absence of cofactor. Unchanged drugs were quantified by LC/MS-MS relative to the synthetic references as described in Materials and Methods. Data are expressed as the percentage of oxidation.

FMO-1, -3, and -5 = assay: Oxidation by recombinant human FMOs; details: 1 mg/mL, 5 μmol/L, 30 min, NADPH
Excerpt: as §5, §2, §3, §4, §6, §7

CYP2D6 = target: T2, CYP2D6 (Homo sapiens, UniProt P10635); assay: Oxidation by recombinant human CYP2D6; details: for Percentage of oxidation (unchanged drug disappearance) by CYP2D6: 100 pmol/mL, 5 μmol/L, 30 min, NADPH
T2 construct: purchased BD Gentest (Woburn, MA); host or cells: baculovirus-infected insect cells
Excerpt: as §5, §2, §3, §4, §6, §1

UGT2B7 = target: T3, UGT2B7 (Homo sapiens, UniProt P16662); assay: Glucuronidation by recombinant human UGT2B7; details: 1 mg/mL, 5 μmol/L, 30 min, UDPGA
T3 construct: purchased BD Gentest (Woburn, MA); host or cells: baculovirus-infected insect cells
Excerpt: as §5
For glucuronidation pathways, the assay mixture was composed of human liver microsomes (2 mg·mL^−1) or microsomes of baculovirus-infected cells expressing human UGTs (1 mg·mL^−1), uridine 5′-diphosphoglucuronic acid (UDPGA) (3 mmol/L), 100 mmol/L Tris HCl (pH 7.4) containing 5 mmol/L MgCl2 and 5 μmol/L of the investigated compound dissolved in DMSO in a final volume of 500 μL. The final concentration of DMSO in the reaction mixture was less than 1% (v/v). […]
Figure 7 Contribution of individual UGTs to the glucuronidation of propanoic acid-dronedarone and phenol-dronedarone. […] Unchanged drugs were quantified by LC/MS-MS relative to the synthetic references as described in Materials and Methods. Data are expressed as the percentage of glucuronidation.

[3] = 5 μmol/L dronedarone, end of 30-min incubation

T2 sequence (P10635 whole entry): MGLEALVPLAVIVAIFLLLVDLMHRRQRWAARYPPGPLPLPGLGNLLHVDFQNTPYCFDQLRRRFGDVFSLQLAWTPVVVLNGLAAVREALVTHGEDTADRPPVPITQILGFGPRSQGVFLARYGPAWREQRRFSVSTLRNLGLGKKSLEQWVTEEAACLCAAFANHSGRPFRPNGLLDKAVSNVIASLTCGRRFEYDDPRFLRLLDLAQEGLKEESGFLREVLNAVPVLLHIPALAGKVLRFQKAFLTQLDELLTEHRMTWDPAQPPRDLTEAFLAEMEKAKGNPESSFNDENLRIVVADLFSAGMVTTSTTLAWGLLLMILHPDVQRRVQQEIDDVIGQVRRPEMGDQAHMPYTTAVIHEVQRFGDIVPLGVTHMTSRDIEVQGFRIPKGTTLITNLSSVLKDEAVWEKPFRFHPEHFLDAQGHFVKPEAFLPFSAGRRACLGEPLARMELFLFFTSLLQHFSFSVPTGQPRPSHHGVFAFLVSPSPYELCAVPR
T3 sequence (P16662 24-529): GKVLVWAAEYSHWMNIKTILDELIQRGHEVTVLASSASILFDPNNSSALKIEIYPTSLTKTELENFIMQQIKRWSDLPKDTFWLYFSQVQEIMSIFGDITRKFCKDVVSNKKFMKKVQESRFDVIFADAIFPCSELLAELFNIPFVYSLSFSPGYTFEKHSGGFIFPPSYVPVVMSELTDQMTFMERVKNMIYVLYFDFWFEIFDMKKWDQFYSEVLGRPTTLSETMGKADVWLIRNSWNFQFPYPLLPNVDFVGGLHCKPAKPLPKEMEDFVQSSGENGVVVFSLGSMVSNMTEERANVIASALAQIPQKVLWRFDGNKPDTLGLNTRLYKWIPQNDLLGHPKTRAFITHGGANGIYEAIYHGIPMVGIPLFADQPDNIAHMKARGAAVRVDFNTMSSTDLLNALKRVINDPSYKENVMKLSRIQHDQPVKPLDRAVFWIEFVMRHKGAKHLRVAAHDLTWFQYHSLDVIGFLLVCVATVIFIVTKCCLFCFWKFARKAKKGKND
T1 sequence (P20815 whole entry): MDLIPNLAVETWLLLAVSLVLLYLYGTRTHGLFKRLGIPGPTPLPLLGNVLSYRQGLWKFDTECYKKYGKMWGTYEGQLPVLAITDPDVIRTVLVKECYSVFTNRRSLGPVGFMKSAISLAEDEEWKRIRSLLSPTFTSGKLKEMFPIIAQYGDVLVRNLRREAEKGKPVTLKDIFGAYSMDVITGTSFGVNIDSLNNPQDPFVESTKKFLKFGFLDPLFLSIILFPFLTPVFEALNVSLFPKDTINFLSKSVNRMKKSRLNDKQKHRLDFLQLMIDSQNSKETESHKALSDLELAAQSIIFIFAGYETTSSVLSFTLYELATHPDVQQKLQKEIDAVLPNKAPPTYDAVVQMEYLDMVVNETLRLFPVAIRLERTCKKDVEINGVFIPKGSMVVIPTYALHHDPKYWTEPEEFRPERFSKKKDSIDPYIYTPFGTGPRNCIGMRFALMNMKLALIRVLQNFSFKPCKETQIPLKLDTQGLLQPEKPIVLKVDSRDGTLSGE

Metabolite formed, as percent of initial dronedarone concentration, with CYP3A5 (CYP3A5; [3]) [%] | Parent drug metabolized by human hepatic microsomes ([1]; absence of NADPH) | Parent drug metabolized by human hepatic microsomes ([1]; presence of 1 mmol/L NADPH) | Oxidation by FMOs (FMO-1, -3, and -5) | Percentage of oxidation (unchanged drug disappearance) by CYP2D6 (CYP2D6) [%] | Metabolite formed, as percent of initial dronedarone concentration, with CYP2D6 (CYP2D6; [3]) | Percentage of oxidation (unchanged drug disappearance) by CYP3A5 (CYP3A5; 100 pmol/mL, 5 μmol/L, 30 min, NADPH) [%] | Metabolism by any of the different CYPs [2] | SMILES | Oxidation by the other CYP isoforms of the panel [2] | Glucuronosyl transferase activity of UGT2B7 (UGT2B7)
 | not metabolized | ~60% | not involved | 50 |  | 90 |  | CCCCc1oc2ccc(NS(C)(=O)=O)cc2c1C(=O)c1ccc(OCCCN(CCCC)CCCC)cc1.Cl [Dronedarone, N-(2-Butyl-3-(4-(3-(dibutylamino)propoxy)benzoyl)-5-benzofuranyl)methanesulfonamide, hydrochloride] | less than 15% | 
 | No metabolism was observed | No metabolism was observed | not metabolized |  |  |  | not metabolized | CCCCN(CCCC)CCCOc1ccc(C(=O)O)cc1 [C-dealkyl-dronedarone] |  | 
 | very slow | very slow | contributed to a very small extent | 94 |  |  |  | CCCCc1oc2ccc(NS(C)(=O)=O)cc2c1C(=O)c1ccc(O)cc1 [Phenol-dronedarone] | contributed to a very small extent | significant glucuronosyl transferase activity

SMILES | Metabolite formed, as percent of initial dronedarone concentration, with CYP3A5 (CYP3A5; [3]) [%] | Parent drug metabolized by human hepatic microsomes ([1]; absence of NADPH) | Parent drug metabolized by human hepatic microsomes ([1]; presence of 1 mmol/L NADPH) | Oxidation by FMOs (FMO-1, -3, and -5) | Percentage of oxidation (unchanged drug disappearance) by CYP2D6 (CYP2D6) [%] | Metabolite formed, as percent of initial dronedarone concentration, with CYP2D6 (CYP2D6; [3]) | Percentage of oxidation (unchanged drug disappearance) by CYP3A5 (CYP3A5; 100 pmol/mL, 5 μmol/L, 30 min, NADPH) [%] | Metabolism by any of the different CYPs [2] | Oxidation by the other CYP isoforms of the panel [2] | Glucuronosyl transferase activity of UGT2B7 (UGT2B7)
CCCCNCCCOc1ccc(C(=O)c2c(CCCC)oc3ccc(NS(C)(=O)=O)cc23)cc1 [N-debutyl-dronedarone] | 50 | 25–30% | 25–30% | Neither other CYPs nor FMOs metabolized N-debutyl-dronedarone to any significant extent | 55 | less than 1% |  |  | Neither other CYPs nor FMOs metabolized N-debutyl-dronedarone to any significant extent | 
CCCCc1oc2ccc(NS(C)(=O)=O)cc2c1C(=O)c1ccc(OCCC(=O)O)cc1 [Propanoic acid-dronedarone] |  | No metabolism occurred | 50% | Neither other CYPs, nor FMOs and MAOs metabolized propanoic acid-dronedarone to any significant extent |  |  |  |  | Neither other CYPs, nor FMOs and MAOs metabolized propanoic acid-dronedarone to any significant extent | significant glucuronosyl transferase activity
